Earlier results as cited in article PMC8683664 (International Journal of Pharmaceutics: X, 2021).
Converted amounts (≈) assume the structure as drawn. Like-named read-outs stand apart in the source and are kept apart here.

Assays:
SARS-CoV-2 [1] = conditions: read-out: EC50 in Calu-3; continuous human lung epithelial cell line (Calu-3), prescribing information of Veklury ref Gilead Sciences, Inc., 2020
severe COVID-19 patients = conditions: 10-day course, placebo 15 days ref Beigel et al., 2020
SAR-CoV-2 = conditions: human airway epithelial (HAE) cells, value in brackets ref Agostini et al., 2018
SARS-CoV-2 [2] = conditions: 2020; for EC50 in Calu-3 2B4 cells: value in brackets ref Pruijssers et al.; for EC50: read-out: EC50 in Calu-3 2B4 cells, Calu-3 2B4 cells ref Pruijssers et al.

Structure (SMILES): CCC(CC)COC(=O)[C@H](C)N[P@](=O)(OC[C@H]1O[C@@](C#N)(c2ccc3c(N)ncnn23)[C@H](O)[C@@H]1O)Oc1ccccc1 [remdesivir]
- EC50 (SARS-CoV-2 [1]): 280 nM
- recovery time (severe COVID-19 patients): 11 days
- EC50 against SAR-CoV-2 in HAE (SAR-CoV-2): 0.04218 µg/mL (≈ 0.07 µM)
- EC50 in Calu-3 2B4 cells (SARS-CoV-2 [2]): 0.16873 µg/mL (≈ 0.28 µM)
- EC50 (SARS-CoV-2 [2]): 280 nM

Structure (SMILES): N#C[C@@]1(c2ccc3c(N)ncnn23)O[C@H](CO)[C@@H](O)[C@H]1O [GS-441524]
- EC50 against SAR-CoV-2 in HAE (SAR-CoV-2): 0.05243 µg/mL (≈ 0.18 µM)
- EC50 in Calu-3 2B4 cells (SARS-CoV-2 [2]): 0.1806 µg/mL (≈ 0.62 µM)
- EC50 (SARS-CoV-2 [2]): 620 nM
